Reference: patent publication US11725015B2, “Macrocyclic compound and uses thereof” (President and Fellows of Harvard College, priority 2017, dated 2023)

How the values were obtained:
[1] = tested on: FaDu subcutaneous xenograft; assay: Antitumor effects in FaDu subcutaneous xenograft model in mice as monotherapy; assay type: in vivo
Procedure: A human squamous cell carcinoma of the head and neck (SCCHN) cell line FaDu, which had been cultured in an RPMI-1640 medium containing 10% FBS, and penicillin and streptomycin, was adjusted to a concentration of 4.8×10^7 cells/mL with Hanks' Balanced Salt Solution to prepare a cell suspension. The cell suspension was inoculated in a volume of 100 μL into a subcutaneous part of a right flank of nude mice, 7 weeks of ages (CAnN.Cg-Foxn1nu/CrlCrlj, female, Charles River Laboratories Japan Inc.).
On the basis of the volumes of tumors obtained on the first day of administration, the mice were grouped such that averages of the tumor volumes were substantially equal among the groups. Each test compound was dissolved in DMSO and a solution was stored at the freezer before use. Immediately before the administration, the stock solution was diluted in saline with 100 μM of hydroxypropyl-β-cyclodextrin. Each evaluation sample was intravenously administered at a maximum tolerable dose (MTD). Incidentally, the experiment was conducted on groups each consisting of 4 mice.

[2] = tested on: human small bowel cancer cell line HuTu 80; assay: HuTu 80 growth inhibition assay; assay type: cell-based; conditions: 3 days incubation, CellTiter-Glo
Procedure: In this assay, the growth inhibitory activities of test compounds in the human small bowel cancer cell line HuTu 80, which was isolated from duodenal tissue were measured. HuTu 80 cells were maintained in EMEM medium containing 10% FBS, penicillin and streptomycin in a 5% CO2 incubator (37° C.). To each well of a 96-well plate (Becton, Dickinson and Company, 353219), 100 μL of a HuTu80 cell suspension adjusted to a concentration of 3×10^4 cells/mL with the culture medium was added, and the cells were incubated overnight in a 5% CO2 incubator (37° C.). On the next day, 100 μL of Compound (1) or Halichondrin B in three-fold dilution series suspended in the culture medium was added to each well, and the resultant was incubated for 3 days in a 5% CO2 incubator (37° C.). Then, cell viability was determined by CellTiter-Glo® Luminescent Cell Viability Assay (Promega) with EnVision 2103 Multilabel Reader (Perkin-Elmer, Wellesley, Mass.). Value of the wells containing cells without adding the test compounds was defined as 100% and the value of the wells containing no cells was defined as 0%. The concentrations of the test compounds necessary for inhibiting the cell growth by 50% (i.e., an IC50 value) were calculated and are shown in Table 15.

[3] = tested on: human urothelial cancer cell line SW780; assay: SW780 growth inhibition assay; assay type: cell-based; conditions: 3 days incubation, CellTiter-Glo
Procedure: In this assay, the growth inhibitory activities of test compounds in the human urothelial cancer cell line SW780 were measured. SW780 cells were maintained in RPMI-1640 medium containing 10% FBS, penicillin, and streptomycin in a 5% CO2 incubator (37° C.). To each well of a 96-well plate (Becton, Dickinson and Company, 353219), 100 μL of a SW780 cell suspension adjusted to a concentration of 3×10^4 cells/mL with the culture medium was added, and the cells were incubated overnight in a 5% CO2 incubator (37° C.). On the next day, 100 μL of Compound (1) or Halichondrin B in three-fold dilution series suspended in the culture medium was added to each well, and the resultant was incubated for 3 days in a 5% CO2 incubator (37° C.). Then, cell viability was determined by CellTiter-Glo® Luminescent Cell Viability Assay (Promega) with EnVision 2103 Multilabel Reader (Perkin-Elmer, Wellesley, Mass.). Value of the wells containing cells without adding the test compounds was defined as 100% and the value of the wells containing no cells was defined as 0%. The concentrations of the test compounds necessary for inhibiting the cell growth by 50% (i.e., an IC50 value) were calculated, and are shown in Table 16.

[4] = tested on: CD31-positive vessel in the FaDu subcutaneous model; assay: Effect on CD31-positive vessel in the FaDu subcutaneous model in mice (Test Example 9); assay type: in vivo; conditions: five days after administration
Procedure: A human squamous cell carcinoma of the head and neck (SCCHN) cell line FaDu, which had been cultured in an RPMI-1640 medium containing 10% FBS, and penicillin and streptomycin, was adjusted to a concentration of 5×10^7 cells/mL with PBS to prepare a cell suspension. The cell suspension was inoculated in a volume of 100 μL into a subcutaneous part of a right flank of nude mice, 7 weeks of ages (CAnN.Cg-Foxnlnu/CrlCrlj, female, Charles River Laboratories Japan, Inc.). Ten days after cell inoculation, a test compound in saline with 100 μM of hydroxypropyl-β-cyclodextrin was intravenously administered at doses from ½ MTD to MTD. The experiment was conducted on groups each consisting of 3 mice. Five days after administration, tumor samples were collected and fixed with IHC Zinc Fixative (BD Pharmingen) at 4° C. for 24 hr. Paraffin-embedded tissues were sectioned (3 μm), mounted on positively charged slides, and air-dried. Immunohistochemical staining of CD31 was conducted using Ventana autostainer model Discover XT (Roche Diagnostics) according to the manufacture's protocol. Sections were deparaffinized, conditioned and the antigens were retrieved with CC1 (Ventana Medical Systems). Slides were blocked with Blocker A and Blocker B (Endogenous biotin blocking kit, Roche Diagnostics). Rat anti-mouse IgG CD31 antibody (Dianova GmbH) was applied at 2 μg/mL. […]
Immunostained slides were scanned using Vectra 2 Automated Slide Imaging System (Perkin Elmer Inc.). The number of blood vessels in the whole tumor was quantified by counting the CD31-positive objects using inForm 2 software (PerkinElmer Inc.) Area of the tumor region was measured by assessing the hematoxylin-staining area using inform 2 software (PerkinElmer Inc.) The number of blood vessels was normalized by the area of the tumor region. An increase rate of the blood vessel number of the test compound-dosing group was calculated with the below formula, and shown in Table 9. […]

Structure (SMILES)	Tumor Regression (%) ([1]; 0.2 mg/kg intravenously (MTD))	IC50 [2]	IC50 [3]	Increase rate of blood vessel number (%) ([4]; 0.10 mg/kg intravenously)	Tumor Regression (%) ([1]; 0.05 mg/kg intravenously (MTD))	Increase rate of blood vessel number (%) ([4]; 0.025 mg/kg intravenously)	Increase rate of blood vessel number (%) ([4]; 0.05 mg/kg intravenously)
C=C1C[C@@H]2CC[C@@]34C[C@H]5O[C@H]6[C@@H](O3)[C@H]3O[C@H](CC[C@@H]3O[C@H]6C5O4)CC(=O)O[C@@H]3[C@@H](C)[C@@H]4O[C@@H]5C[C@]6(C[C@@H]7O[C@]8(C[C@H](C)[C@@H]9O[C@H](CN)[C@H](O)C[C@@H]9O8)C[C@H](C)[C@@H]7O6)O[C@@H]5C[C@@H]4O[C@H]3C[C@H]3O[C@@H](CC[C@@H]1O2)C[C@@H](C)C3=C [Compound (1)]	43%	0.019 nM	0.017 nM	69%	–	–	–
C=C1C[C@@H]2CC[C@@]34C[C@H]5O[C@H]6[C@@H](O3)[C@H]3O[C@H](CC[C@@H]3O[C@H]6[C@H]5O4)CC(=O)O[C@@H]3[C@@H](C)[C@@H]4O[C@@H]5C[C@]6(C[C@@H]7O[C@]8(C[C@H](C)[C@@H]9O[C@H]([C@@H](O)C[C@@H](O)CO)C[C@@H]9O8)C[C@H](C)[C@@H]7O6)O[C@@H]5C[C@@H]4O[C@H]3C[C@H]3O[C@@H](CC[C@@H]1O2)C[C@@H](C)C3=C [Halichondrin B, reference compound]	–	0.031 nM	0.032 nM	–	0%	31%	39%
